Laboratory results: patent publication US6914045B2, “Glycopeptide antibiotics” (Wyeth Holdings Corporation, priority 2001, dated 2005)

Experiments:
Assay in all cases: in vitro antibacterial evaluation, MIC by broth dilution
Format in all cases: cell-based
Escherichia coli = settings: 18 hours at 35° C.
Enterococcus sp. = settings: broth dilution, 18 hours at 35° C.
Experimental: (§1) Methods for in vitro Antibacterial Evaluation (Table 1)
(§2) The minimum inhibitory concentration (MIC), the lowest concentration of the antibiotic which inhibits growth of the test organism, is determined by the broth dilution method using Muller-Hinton II […] (Baltimore Biological Laboratories) following the recommendations of the National Committee for Clinical Laboratory Standards [Methods for dilution antimicrobial susceptibility tests for bacteria that grow aerobically, approved standard M7-A2, National Committee for Clinical Laboratory Standards, Villanova, Pa.].
(§3) An inoculum level of 5×10^5 CFU/mL, and a range of antibiotic concentrations (64-0.06 μg/mL) is used. […] The test organisms include a spectrum of Gram-positive bacteria comprised of Staphylococcus sp., Streptococcus sp. and Enterococcus sp. These organisms include recent clinical isolates that are resistant to methicillin, penicillin and/or vancomycin.

Staphylococcus sp. = settings: broth dilution, 18 hours at 35° C.; for MIC Staphylococcus aureus (GC 1131): strain GC 1131
Experimental: as §1, §2, §3

Streptococcus sp. = settings: broth dilution, 18 hours at 35° C.
Experimental: as §1, §2, §3

N=C1NCC(C(O)C2NC(=O)C(Cc3ccc(OC4OC(CO)C(OC5OC6COC(CCc7ccccc7)OC6C(O)C5O)C(O)C4O)cc3)NC(=O)C(CC3CCCCC3)NC(=O)CNC(=O)C(CO)NC(=O)C(C(O)C3CNC(=N)N3C3OC(CO)C(O)C(O)C3O)NC2=O)N1 (stereo not shown) [Example 198]
0.25 µg/mL: MIC Staphylococcus aureus (GC 4542) (Staphylococcus sp.; strain GC 4542)
1 µg/mL: MIC Escherichia coli (GC 4560) (Escherichia coli) | MIC Enterococcus avium (GC 4558) (Enterococcus sp.) | MIC Enterococcus faecalis (ATCC 29212) (Enterococcus sp.) | MIC Enterococcus faecalis (GC 2242) (Enterococcus sp.) | MIC Enterococcus faecalis (GC 2691) (Enterococcus sp.) | MIC Enterococcus faecalis (GC 3059) (Enterococcus sp.) | MIC Enterococcus faecalis (GC 4552) (Enterococcus sp.) | MIC Enterococcus faecalis (GC 4553) (Enterococcus sp.) | MIC Enterococcus faecalis (GC 4554) (Enterococcus sp.) | MIC Enterococcus faecalis (GC 6189) (Enterococcus sp.) | MIC Enterococcus faecium (GC 2243) (Enterococcus sp.) | MIC Enterococcus faecium (GC 4556) (Enterococcus sp.) | MIC Enterococcus faecium (GC 4557) (Enterococcus sp.) | MIC Enterococcus faecalis (ATCC 29212) (Enterococcus sp.; inoculum 5×10^5 CFU/mL, strain ATCC 29212) | MIC Enterococcus faecalis (GC 2242) (Enterococcus sp.; inoculum 5×10^5 CFU/mL, strain GC 2242) | MIC Enterococcus faecium (GC 2243) (Enterococcus sp.; inoculum 5×10^5 CFU/mL, strain GC 2243) | MIC Enterococcus faecalis (GC 2691) (Enterococcus sp.; inoculum 5×10^5 CFU/mL, strain GC 2691) | MIC Enterococcus faecalis (GC 3059) (Enterococcus sp.; inoculum 5×10^5 CFU/mL, strain GC 3059) | MIC Enterococcus faecalis (GC 4552) (Enterococcus sp.; inoculum 5×10^5 CFU/mL, strain GC 4552) | MIC Enterococcus faecalis (GC 4553) (Enterococcus sp.; inoculum 5×10^5 CFU/mL, strain GC 4553) | MIC Enterococcus faecalis (GC 4554) (Enterococcus sp.; inoculum 5×10^5 CFU/mL, strain GC 4554) | MIC Enterococcus faecium (GC 4556) (Enterococcus sp.; inoculum 5×10^5 CFU/mL, strain GC 4556) | MIC Enterococcus faecium (GC 4557) (Enterococcus sp.; inoculum 5×10^5 CFU/mL, strain GC 4557) | MIC Enterococcus avium (GC 4558) (Enterococcus sp.; inoculum 5×10^5 CFU/mL, strain GC 4558) | MIC Enterococcus faecalis (GC 6189) (Enterococcus sp.; inoculum 5×10^5 CFU/mL, strain GC 6189) | MIC Staphylococcus aureus (GC 1131) (Staphylococcus sp.; inoculum 5×10^5 CFU/mL) | MIC Staphylococcus aureus (GC 1131) (Staphylococcus sp.) | MIC Coagulase Negative Staphylococcus (GC 4547) (Staphylococcus sp.; strain GC 4547)
32 µg/mL: MIC Escherichia coli (ATCC 25922) (Escherichia coli) | MIC Escherichia coli (GC 4559) (Escherichia coli)
0.5 µg/mL: MIC Staphylococcus aureus (ATCC 29213) (Staphylococcus sp.; strain ATCC 29213) | MIC Staphylococcus aureus (GC 3051) (Staphylococcus sp.; strain GC 3051) | MIC Staphylococcus aureus (GC 3053) (Staphylococcus sp.; strain GC 3053) | MIC Staphylococcus aureus (GC 4541) (Staphylococcus sp.; strain GC 4541) | MIC Staphylococcus aureus-SMITH (GC 4543) (Staphylococcus sp.; strain GC 4543) | MIC Staphylococcus aureus (GC 4544) (Staphylococcus sp.; strain GC 4544) | MIC Staphylococcus aureus (GC 4545) (Staphylococcus sp.; strain GC 4545) | MIC Staphylococcus haemolyticus (GC 4546) (Staphylococcus sp.; strain GC 4546) | MIC Coagulase Negative Staphylococcus (GC 4549) (Staphylococcus sp.; strain GC 4549) | MIC Coagulase Negative Staphylococcus (GC 4551) (Staphylococcus sp.; strain GC 4551)
<0.12 µg/mL: MIC Coagulase Negative Staphylococcus (GC 4548) (Staphylococcus sp.; strain GC 4548) | MIC Streptococcus agalactiae (GC 4564) (Streptococcus sp.) | MIC Streptococcus pneumoniae (ATCC 6301) (Streptococcus sp.) | MIC Streptococcus pneumoniae (GC 1894) (Streptococcus sp.) | MIC Streptococcus pneumoniae (GC 4565) (Streptococcus sp.) | MIC Streptococcus pyogenes (GC 4563) (Streptococcus sp.) | MIC Streptococcus pneumoniae (ATCC 6301) (Streptococcus sp.; inoculum 5×10^5 CFU/mL, strain ATCC 6301) | MIC Streptococcus pneumoniae (GC 1894) (Streptococcus sp.; inoculum 5×10^5 CFU/mL, strain GC 1894) | MIC Streptococcus pyogenes (GC 4563) (Streptococcus sp.; inoculum 5×10^5 CFU/mL, strain GC 4563) | MIC Streptococcus agalactiae (GC 4564) (Streptococcus sp.; inoculum 5×10^5 CFU/mL, strain GC 4564) | MIC Streptococcus pneumoniae (GC 4565) (Streptococcus sp.; inoculum 5×10^5 CFU/mL, strain GC 4565)
